Assay results as given in patent publication US6914121B2, “PEG-LHRH analog conjugates” (Applied Research Systems Ars Holding N.V., priority 1998, dated 2005).
Converted amounts (≈) assume the structure as drawn. Square brackets hold non-standard residues; d marks the D form. Peptide text beside a SMILES is read from it. * marks the point of attachment. Phe(4-Cl) = N[CH](Cc1ccc(Cl)cc1)C(=O)O; 2Nal = N[CH](Cc1ccc2ccccc2c1)C(=O)O; Lys(iPr) = CC(C)NCCCC[CH](N)C(=O)O; 3Pal = N[CH](Cc1cccnc1)C(=O)O; Nicotinoyl = O=C(c1cccnc1)*

Experiments:
[1] = previous formulations, e.g. antide 1 mg/ml in 5% glucose; cited from earlier work
[2] = Solubility of antide in isotonic media; format: physicochemical

solubility ([2]; 0.9% NaCl solution): 25 µg/mL (≈ 15.7 µM)
solubility ([2]; phosphate buffered saline): 16 µg/mL (≈ 10.1 µM)
Structure (SMILES): CC(=O)NC(Cc1ccc2ccccc2c1)C(=O)NC(Cc1ccc(Cl)cc1)C(=O)NC(Cc1cccnc1)C(=O)NC(CO)C(=O)NC(CCCCNC(=O)c1cccnc1)C(=O)NC(CCCCNC(=O)c1cccnc1)C(=O)NC(CC(C)C)C(=O)NC(CCCCNC(C)C)C(=O)N1CCCC1C(=O)NC(C)C(N)=O (stereo not drawn) [antide] (Ac-[2Nal][Phe(4-Cl)][3Pal]SK(Nicotinoyl)K(Nicotinoyl)L[Lys(iPr)]PA-NH2; configuration not given here)
bioavailability [1]: poor bioavailability
